Results on 1 molecule are retold here after patent US20090209535A1, “6-ETHER/THIOETHER-PURINES AS TOPOISOMERASE II CATALYTIC INHIBITORS AND THEIR USE IN THERAPY” (TOPOTARGET A/S, priority 2005, published 2009).

Test [1] has as its target T1, topoisomerase II α (Homo sapiens, UniProt P11388). Put plainly: Topoisomerase II retention on DNA/streptavidin beads (salt-stable complex). The class given is biochemical. Further details: made in house; host or cells: yeast (over-expressing yeast cells). The protocol:
An assay capable of measuring non-covalent complexes of topoisomerase II on closed circular DNA was performed as described in Morris et al., 2000, with modifications. When performing six reactions, 60 μL M280 streptavidin coated bead (Dynal A/S, Oslo, Norway) slurry corresponding to 600 μg beads was transferred to a 1.5 mL tube that was then placed in a Dynal MPC-E (magnetic particle concentrator) rack (Dynal A/S, Oslo, Norway) for 1 to 2 minutes until the beads had settled on the tube wall. The beads were then washed twice in the DNA binding solution supplied with the kilobase binding kit (Dynal A/S, Oslo, Norway) by repeating this step. Finally, the beads were re-suspended in 250 μL DNA binding solution. A preparation of biotin labelled plasmid DNA containing a 5-kb super coiled circular DNA molecule carrying 8 successive PNA (Peptide Nucleic Acid) linked biotin labels at one known position (pGeneGrip biotin blank vector, Gene Therapy Systems Inc., San Diego, Calif., USA) was made by mixing 220 μL distilled water and 30 μL biotinylated DNA. After mixing the beads and the DNA preparation, the sample was left overnight at room temperature under gentle agitation to assure optimal formation of the DynaBeads DNA complex. Next, the complex was washed twice in 480 μL wash buffer (10 mM TRIS-HCL, pH 7.5, 2 M NaCl, 1 mM EDTA), once in distilled water, and once in topoisomerase reaction buffer (10 mM TRIS-HCl, pH 7.9, 50 mM NaCl, 50 mM KCl, 5 mM MgCl2, 1 mM EDTA, […] BSA). Then, the beads were re-suspended in 600 μL topoisomerase II buffer and divided into 6 tubes. 100 μL reactions containing plasmid DNA coated DynaBeads, topoisomerase II buffer, 2 μg purified human topoisomerase […] and drugs were incubated for 30 minutes at 37° C. When included, ATP was present at 1 mM. […]
FIG. 7 describes the results of studies of the ability of NSC 35866 to stabilise a salt-stable complex of human topoisomerase II α on covalently closed circular DNA. Retention of salt-stable (to 2 M KCl) complexes of human topoisomerase II α on circular DNA attached to magnetic beads via biotin-streptavidin linkage was determined by eluting retained protein by adding running buffer containing 4% SDS followed by heating to 100° C. for 10 minutes. The amount of human topoisomerase II α protein retained was then determined by running the samples on 7% SDS-PAGE gels followed by straining with GelCode Blue Strain Reagent (Pierce, Rockford, Ill., USA): Lane 1, no drug; Lane 2, 200 μM ICRF-187; Lane 3, 30 μM NSC 35866; Lane 4, 100 μM NSC 35866; Lane 5, 300 μM NSC 35866; Lane 6, 1000 μM NSC 35866; Lane K, 2 μg human topoisomerase II α. […]

Test [2] deals with T1, topoisomerase II α. Put plainly: Topoisomerase II ATPase assay (coupled, NADH oxidation). The class given is biochemical. Set-up: made in house; host or cells: yeast (over-expressing yeast cells). How it is done:
The reaction was monitored spectrophotometrically at 340 nm using a Bio-Tek EL808 Ultra Micro plate Reader connected to a computer with KC4 Software installed (Bio-Tek Instruments, U.S.). The change in absorbance was related to ADP production using A340^1M=6220 cm^−1. […] The rate of ATP hydrolysis, V, was determined from the linear part of the curve.
The steady-state rate of ATP hydrolysis was determined using a coupled ATPase assay as described herein. […] Error bars represent SEM of two independent experiments each performed in duplicate.
The steady-state rate of ATP hydrolysis was determined as described in for FIG. 3 and as described herein. In this analysis, the rate of ATP hydrolysis in the absence of drug was set to one in all experiments. Error bars represent SEM of 2 or 3 independent experiments each preformed in duplicate.

Test [3] concerns the target T1, topoisomerase II α. Briefly: Band depletion assay (extractable topoisomerase II α, western blot). The format is cell-based. Further details: OC—NYH cells were exposed to increasing concentrations of NSC 35866 for one hour and total proteins were extracted at 0.3 M NaCl; endogenous in cells; host or cells: human small cell lung cancer OC-NYH cells. To be noted: 200 μM, OC—NYH cells, one hour. How it is done:
Band depletion assay was performed essentially as described in Sehested et al., 1998. The amount of extractable topoisomerase II α was detected by the ECL detection method (Amersham, Buckinghamshire, United Kingdom). OC—NYH cells were exposed to increasing concentrations of NSC 35866 for one hour and total proteins were extracted at 0.3 M NaCl. For detection of topoisomerase II α, a polyclonal primary antibody (Bio Trend, Cologne, Germany) was used. Horseradish peroxidase linked anti-rabbit antibody (Amersham, Buckinghamshire, United Kingdom) was used as secondary antibody.
FIG. 10 describes the results of studies of the ability of NSC 35866 to trap human topoisomerase II α as a non-extractable complex on DNA in a dose dependent manner. The ability of NSC 35866 to stabilise topoisomerase II α as a non-extractable complex on DNA in human SCLC OC—NYH cells was assessed using the band depletion assay as described herein. The amounts of topoisomerase II α was visualised by western blotting using a topoisomerase II α specific primary antibody: Lane 1, no drug; Lane 2, 200 μM ICRF-187; Lane 3, 200 μM NSC 35866; Lane 4, 500 μM NSC 35866; Lane 5, 1000 μM NSC 35866. Band depletion of the topoisomerase II α isoform caused by NSC 35866 was detected in two independent experiments.

The target in test [4] is T2, bisdioxopiperazine resistant Y165S mutant human topoisomerase II α (Homo sapiens, UniProt P11388, Y165S).
T2 construct: made in house; host or cells: yeast (over-expressing yeast cells)
The class given is biochemical. The following applies: FIG. 2-B.
Experimental: Topoisomerase II catalytic activity (DNA strand passage activity) was measured by using a filter-based kDNA decatenation assay as described in Jensen et al., 2002. Briefly, 200 ng ^3H labelled kDNA isolated from C. fasciculata was incubated with increasing concentrations of drug in 20 μL reaction buffer containing 10 mM TRIS-HCl pH 7.7, 50 mM NaCl, 50 mM KCl, 5 mM MgCl2, 1 mM EDTA, 15 μg/mL BSA and 1 mM ATP using two units of purified wild-type or Y165S mutant topoisomerase II α for 20 minutes at 37° C. (where one unit of activity is defined as the amount of enzyme required for complete decatenation in the absence of drug). After addition of 5× stop buffer (5% Sarkosyl, 0.0025% bromophenol blue, and 50% glycerol), unprocessed kDNA network and decatenated DNA mini-circles were separated by filtering, and the amount of unprocessed kDNA in each reaction was determined by scintillation counting.
Inhibition of human topoisomerase II α DNA strand passage activity was assessed by decatenation of tritium-labelled Crithidia fasiculata kDNA using a filter-based assay to separate unprocessed kDNA network from decatenated mini-circles.

T1 sequence (P11388 whole entry): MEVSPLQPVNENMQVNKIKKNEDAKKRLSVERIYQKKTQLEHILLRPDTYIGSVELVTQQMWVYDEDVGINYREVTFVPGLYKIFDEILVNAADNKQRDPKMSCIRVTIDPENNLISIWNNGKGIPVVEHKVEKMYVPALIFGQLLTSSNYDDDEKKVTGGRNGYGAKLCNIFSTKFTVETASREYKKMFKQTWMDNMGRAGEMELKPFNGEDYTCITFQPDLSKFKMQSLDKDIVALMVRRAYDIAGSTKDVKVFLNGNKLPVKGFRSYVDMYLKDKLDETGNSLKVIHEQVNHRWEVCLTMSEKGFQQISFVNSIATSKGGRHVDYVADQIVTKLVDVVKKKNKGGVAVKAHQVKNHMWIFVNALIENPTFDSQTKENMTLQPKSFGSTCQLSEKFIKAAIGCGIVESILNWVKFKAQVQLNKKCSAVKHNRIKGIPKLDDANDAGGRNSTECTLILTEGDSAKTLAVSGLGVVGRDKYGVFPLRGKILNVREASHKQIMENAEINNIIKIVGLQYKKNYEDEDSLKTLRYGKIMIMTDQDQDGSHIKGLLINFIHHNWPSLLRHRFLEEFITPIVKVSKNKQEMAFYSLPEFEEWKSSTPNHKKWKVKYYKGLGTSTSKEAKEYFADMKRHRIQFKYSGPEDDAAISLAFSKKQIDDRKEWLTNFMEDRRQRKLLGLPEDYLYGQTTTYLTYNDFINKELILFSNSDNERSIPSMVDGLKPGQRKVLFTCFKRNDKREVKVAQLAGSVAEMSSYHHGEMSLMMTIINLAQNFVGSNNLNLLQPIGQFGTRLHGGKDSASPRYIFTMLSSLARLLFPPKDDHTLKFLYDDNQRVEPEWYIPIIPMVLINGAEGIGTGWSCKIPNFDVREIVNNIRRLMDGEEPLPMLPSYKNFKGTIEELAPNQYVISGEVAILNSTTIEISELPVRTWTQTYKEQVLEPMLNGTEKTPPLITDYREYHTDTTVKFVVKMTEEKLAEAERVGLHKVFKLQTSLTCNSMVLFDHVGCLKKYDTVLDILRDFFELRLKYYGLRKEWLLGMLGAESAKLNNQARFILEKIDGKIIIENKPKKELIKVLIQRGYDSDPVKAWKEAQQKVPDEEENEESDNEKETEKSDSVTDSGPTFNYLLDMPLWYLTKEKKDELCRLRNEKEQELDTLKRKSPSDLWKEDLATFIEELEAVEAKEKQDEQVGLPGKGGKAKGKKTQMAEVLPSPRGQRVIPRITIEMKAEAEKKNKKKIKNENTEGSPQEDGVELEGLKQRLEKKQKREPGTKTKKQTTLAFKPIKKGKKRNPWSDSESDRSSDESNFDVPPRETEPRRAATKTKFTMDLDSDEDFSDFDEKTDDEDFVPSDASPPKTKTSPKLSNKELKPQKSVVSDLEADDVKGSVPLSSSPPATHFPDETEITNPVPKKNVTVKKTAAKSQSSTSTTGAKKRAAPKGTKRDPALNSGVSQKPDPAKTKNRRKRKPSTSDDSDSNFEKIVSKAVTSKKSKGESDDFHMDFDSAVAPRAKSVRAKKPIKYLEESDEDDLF
T2 sequence (P11388 whole entry Y165S): as the sequence (P11388 whole entry) above, with Y165S counted along it

As a reminder, the IC50 is the concentration that gives 50% inhibition. On to `C[C@@H](CN1CC(=O)NC(=O)C1)N1CC(=O)NC(=O)C1` [ICRF-187, (+)-1,2-bis(3,5-dioxopiperazinyl-1-yl)propane, reference compound], for which the “retention of topoisomerase II on DNA beads after 2 M KCl wash, in words” value on topoisomerase II α [1] (200 μM, with ATP) was “strongly induced the retention of topoisomerase II to the beads”. Further, the “retention of topoisomerase II on DNA beads, in words” value on topoisomerase II α [1] (in the absence of ATP) is reported as “strongly depended on ATP”. For the same molecule, the “ATPase activity relative to that seen in the absence of drug” value on topoisomerase II α [2] (100 μM, in the absence of DNA) was determined as 75%. Also, the IC50 on topoisomerase II α [2] (in the presence of DNA (DNA-stimulated), read-out: IC50, inhibition of ATPase activity) is 1 µM. For the same molecule, the “effect on amount of extractable topoisomerase II α, in words” value at topoisomerase II α [3] was “clearly reduced”. Also, in test [4], the “inhibition of catalytic activity of the Y165S protein, in words” value was “incapable of inhibiting the catalytic activity of the Y165S protein”.
